Results published in paper PMC10046562, “Computational Analysis and Experimental Testing of the Molecular Mode of Action of Gatastatin and Its Derivatives” (Cancers, 2023).

Target: T1, α-β tubulin (β tubulin, porcine brain) (Sus scrofa, UniProt P02550+P02554)
T1 construct: α-β tubulin purified from porcine brains, labeled with RED-NHS; with α tubulin
Test: microscale thermophoresis, labeled tubulin
Type: binding

T1 sequence (P02554 whole entry): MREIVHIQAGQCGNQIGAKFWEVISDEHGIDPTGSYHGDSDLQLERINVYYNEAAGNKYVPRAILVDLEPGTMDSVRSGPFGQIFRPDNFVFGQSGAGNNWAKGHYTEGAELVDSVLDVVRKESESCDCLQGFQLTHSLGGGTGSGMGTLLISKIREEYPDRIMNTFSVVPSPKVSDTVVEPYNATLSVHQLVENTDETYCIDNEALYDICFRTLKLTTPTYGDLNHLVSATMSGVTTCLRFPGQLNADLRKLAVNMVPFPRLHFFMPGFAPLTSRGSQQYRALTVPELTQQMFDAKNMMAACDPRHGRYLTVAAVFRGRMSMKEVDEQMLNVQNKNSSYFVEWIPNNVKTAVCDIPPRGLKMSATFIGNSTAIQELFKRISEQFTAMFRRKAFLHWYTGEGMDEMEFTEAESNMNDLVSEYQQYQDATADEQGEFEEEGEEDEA
T1 sequence (P02550 whole entry): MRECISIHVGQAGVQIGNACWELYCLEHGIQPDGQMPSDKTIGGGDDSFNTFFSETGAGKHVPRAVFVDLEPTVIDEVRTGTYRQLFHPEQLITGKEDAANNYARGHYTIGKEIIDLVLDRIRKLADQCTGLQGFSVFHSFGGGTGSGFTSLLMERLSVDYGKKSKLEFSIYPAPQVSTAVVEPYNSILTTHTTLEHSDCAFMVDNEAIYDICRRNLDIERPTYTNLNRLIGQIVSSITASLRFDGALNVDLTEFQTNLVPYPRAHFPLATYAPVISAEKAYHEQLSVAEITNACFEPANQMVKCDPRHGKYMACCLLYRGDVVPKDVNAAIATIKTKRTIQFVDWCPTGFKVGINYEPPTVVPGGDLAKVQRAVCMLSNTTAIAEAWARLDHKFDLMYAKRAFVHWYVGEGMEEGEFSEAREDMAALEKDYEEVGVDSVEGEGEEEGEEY

Kd: 2160 ± 470 nM
SMILES: COc1cc2c(=O)c(-c3cc(OC)c4c(c3OC)OCO4)coc2cc1OCc1ccccc1 [gatastatin]
